Experiments:
[1] = In vitro CEST imaging on a clinical 3 Tesla MRI scanner; format: physicochemical; details: 3.0 T, 20 mM, pH 7.4, room temperature
Protocol: Experiments were performed on a 3.0 Tesla Philips Achieva system (Philips Healthcare, Best, The Netherlands) using a body coil for transmit and a small animal solenoid coil for reception. CEST data were collected using a pulsed acquisition scheme (Jones, C. K. et al. Magn Reson Med 2011) with a 25 ms, 164 Hz frequency selective saturation pulse followed by a partial EPI readout (EPI factor 3). This TR interval was repeated until a 3D volume was acquired with 5 slices (slice thickness of 10 mm) across a field of view of 48×45 mm^2 (in plane resolution of 0.75 mm×0.9 mm) The acquisition per irradiation frequency consisted of TR/TE=65/5.5 ms and 4 averages. A total of 64 images were acquired which included an unsaturated volume and 63 saturated volumes with equally spaced frequency offsets between ±10 ppm (relative to the water frequency). The total acquisition time was 26 min 38 s. The experiments for B0 correction (Kim, M. et al. Magn Reson Med 2009, 61, 1441) were run the same except that 40 Hz frequency selective saturation pulse was used. Data processing was performed as described herein.

[2] = Quantification of exchange rates (QUESP, Bloch equation fitting); format: physicochemical; details: 11.7 T, pH 7.4, 37° C.
Protocol: Exchange rates were quantified with the saturation power dependent CEST approach (QUESP) and Bloch equation fitting (McMahon et al., Magn. Res. Med. 2006, 55, 836). For each sample, the MTRasym was measured at the imino resonance frequency for CEST saturation fields of 43, 85, 128, 170, 213, 255, 340, and 426 Hz while the saturation pulse duration was kept constant at 4000 ms. The Bloch equations were then fit numerically to these MTRasym values using MATLAB (Mathworks), and the exchange rates (kex, s^−1) were determined from the fits. Errors (95% confidence limits) were estimated using the F statistic.

[3] = cited from earlier work
[4] = In vitro CEST-MRI of thymidine analogues at 11.7 T; format: physicochemical; details: pH 7.4, 37° C.
Protocol: All compounds were dissolved at a concentration of 20 mM in phosphate-buffered saline (PBS) (pH=7.4) and placed in microcapillaries, as described previously.^17 CESTMRI experiments were performed on a vertical 11.7 T scanner (Bruker Avance system) at 37° C. A modified RARE sequence (TR/TE=10 000/9.4 ms; RARE factor=16; 1 mm slice thickness; FOV=11×11 mm^2; matrix size=64×32; resolution=0.17×0.34 mm^2; and NA=2) including a magnetization transfer (MT) module ([…]) was used to acquire CEST-weighted images from −8 to +8 ppm with increments of 0.2 ppm around the water resonance, which was assigned to be at 0 ppm. Pixel-based B0 correction was used as described before using the same parameters as above except for TR=1500 ms and B1/tsat=21 Hz/500 ms, with a sweep range from −2 to +2 ppm (0.1 ppm steps). Data processing was performed using custom-written scripts in MATLAB (Mathworks). Mean CEST spectra were plotted from an ROI for each sample, after B0 correction. MTRasym=100×(S^−Aω−S^AωA/^‘−’0)/3 was computed at different offsets Aω.

[5] = at 5 ppm for 20 nM agent (so in the source)

Q: Which results are given for `C[C@H]1CN([C@H]2C[C@H](O)[C@@H](CO)O2)C(=O)NC1=O` [Compound 1, (5S)-5,6-dihydrothymidine]?
A: MTRasym value at 5 ppm, higher compared to dT [1]: 40%; kex of the imino proton [2]: 0.8±0.2×10^3 s^−1; kex, quantified exchange rates of imino and water protons ([2]; 5 ppm for 1-3, 6 ppm for dT): 0.8 ± 0.2 ×10^3 s^−1; pKa values of the imino proton obtained from the literature [3]: 11.6^43; MTRasym (8.5 Hz) [4, 5]: 6%; MTRasym (170 Hz) [4, 5]: 18%; MTRasym (213 Hz) [4, 5]: 19%; MTRasym (128 Hz) ([4]; at 5 ppm for 20 mM agent): 14%
